Experimental data reported in the NIST ThermoML archive (doi:10.1016/j.jct.2005.01.009).
± gives the expanded uncertainty stated by the source.

Experiment: mn = molality of the nth substance listed, in mol/kg
Conditions: 101 kPa, Liquid; for speed of sound: Linear variable-path acoustic interferometer

CCCCn1cc[n+](C)c1.[Br-] [1-butyl-3-methylimidazolium bromide] + CCO
Conditions | mass density, 298.15 K [kg/m3] | mass density, 303.15 K [kg/m3] | mass density, 308.15 K [kg/m3] | mass density, 313.15 K [kg/m3] | mass density, 318.15 K [kg/m3] | speed of sound, 298.15 K [m/s] | speed of sound, 303.15 K [m/s] | speed of sound, 308.15 K [m/s] | speed of sound, 313.15 K [m/s] | speed of sound, 318.15 K [m/s]
m1 = 0.0271 | 787.221 ± 2.4 | 782.917 ± 2.4 | 778.581 ± 2.4 | 774.206 ± 2.5 | 769.798 ± 2.5 | 1145.2 ± 1.3 | 1128.3 ± 1.3 | 1111.6 ± 1.3 | 1094.9 ± 1.3 | 1078.3 ± 1.3
m1 = 0.0587 | 789.649 ± 2.3 | 785.356 ± 2.4 | 781.029 ± 2.4 | 776.665 ± 2.4 | 772.267 ± 2.5 | 1147.3 ± 1.3 | 1130.5 ± 1.3 | 1113.8 ± 1.3 | 1097.1 ± 1.3 | 1080.6 ± 1.3
m1 = 0.0846 | 791.567 ± 2.3 | 787.288 ± 2.4 | 782.969 ± 2.4 | 778.613 ± 2.4 | 774.213 ± 2.5 | 1148.6 ± 1.3 | 1131.9 ± 1.3 | 1115.3 ± 1.3 | 1098.6 ± 1.3 | 1082.1 ± 1.3
m1 = 0.1257 | 794.595 ± 2.3 | 790.319 ± 2.3 | 786.01 ± 2.4 | 781.663 ± 2.4 | 777.288 ± 2.4 | 1150.8 ± 1.4 | 1134 ± 1.3 | 1117.4 ± 1.3 | 1101 ± 1.3 | 1084.5 ± 1.3
m1 = 0.1587 | 796.91 ± 2.3 | 792.647 ± 2.3 | 788.343 ± 2.4 | 784.006 ± 2.4 | 779.628 ± 2.4 | 1152.7 ± 1.4 | 1136.1 ± 1.3 | 1119.4 ± 1.3 | 1103 ± 1.3 | 1086.5 ± 1.3
m1 = 0.2261 | 801.67 ± 2.2 | 797.404 ± 2.3 | 793.117 ± 2.3 | 788.795 ± 2.4 | 784.413 ± 2.4 | 1155.8 ± 1.4 | 1139.7 ± 1.3 | 1123.2 ± 1.3 | 1106.8 ± 1.3 | 1090.5 ± 1.3
m1 = 0.3162 | 807.896 ± 2.2 | 803.664 ± 2.2 | 799.393 ± 2.3 | 795.091 ± 2.3 | 790.753 ± 2.3 | 1160.7 ± 1.4 | 1144.3 ± 1.4 | 1128 ± 1.3 | 1111.7 ± 1.3 | 1095.4 ± 1.3

CCCCn1cc[n+](C)c1.[Br-] [1-butyl-3-methylimidazolium bromide] + CO
Conditions | mass density, 298.15 K [kg/m3] | mass density, 303.15 K [kg/m3] | mass density, 308.15 K [kg/m3] | mass density, 313.15 K [kg/m3] | mass density, 318.15 K [kg/m3] | speed of sound, 298.15 K [m/s] | speed of sound, 303.15 K [m/s] | speed of sound, 308.15 K [m/s] | speed of sound, 313.15 K [m/s] | speed of sound, 318.15 K [m/s]
m1 = 0.0473 | 790.393 ± 2.3 | 785.688 ± 2.4 | 780.958 ± 2.4 | 776.204 ± 2.5 | 771.426 ± 2.5 | – | 1090.5 ± 1.3 | 1074.3 ± 1.3 | 1058.2 ± 1.2 | 1042.3 ± 1.2
m1 = 0.0767 | 792.789 ± 2.3 | 788.091 ± 2.4 | 783.371 ± 2.4 | 778.627 ± 2.4 | 773.86 ± 2.5 | – | 1092.6 ± 1.3 | 1076.5 ± 1.3 | 1060.5 ± 1.3 | 1044.7 ± 1.2
m1 = 0.1497 | 798.175 ± 2.3 | 793.495 ± 2.3 | 788.794 ± 2.3 | 784.073 ± 2.4 | 779.323 ± 2.4 | 1114.1 ± 1.3 | 1098 ± 1.3 | 1081.9 ± 1.3 | 1066 ± 1.3 | 1050.2 ± 1.2
m1 = 0.2612 | 806.303 ± 2.2 | 801.654 ± 2.2 | 796.988 ± 2.3 | 792.294 ± 2.3 | 787.582 ± 2.4 | 1121.7 ± 1.3 | 1105.7 ± 1.3 | 1089.7 ± 1.3 | 1073.9 ± 1.3 | 1058.2 ± 1.3
m1 = 0.3434 | 812.207 ± 2.2 | 807.572 ± 2.2 | 802.921 ± 2.2 | 798.249 ± 2.3 | 793.553 ± 2.3 | 1127.1 ± 1.3 | 1111.1 ± 1.3 | 1095.2 ± 1.3 | 1079.4 ± 1.3 | 1063.8 ± 1.3
m1 = 0.4912 | 822.389 ± 2.1 | 817.794 ± 2.1 | 813.177 ± 2.2 | 808.542 ± 2.2 | 803.883 ± 2.2 | 1136.4 ± 1.3 | 1120.6 ± 1.3 | 1104.8 ± 1.3 | 1089.2 ± 1.3 | 1073.8 ± 1.3
m1 = 0.7273 | 837.955 ± 2 | 833.402 ± 2 | 828.837 ± 2 | 824.253 ± 2.1 | 819.66 ± 2.1 | 1151 ± 1.4 | 1135.4 ± 1.4 | 1119.9 ± 1.3 | 1104.5 ± 1.3 | 1089.2 ± 1.3
m1 = 0.9756 | 852.578 ± 1.8 | 848.25 ± 1.9 | 843.727 ± 1.9 | 839.188 ± 1.9 | 834.634 ± 2 | 1164.1 ± 1.4 | 1148.7 ± 1.4 | 1133.4 ± 1.4 | 1118.2 ± 1.4 | 1103.1 ± 1.4
m1 = 1.405 | 876.422 ± 1.7 | 871.97 ± 1.7 | 867.512 ± 1.7 | 863.046 ± 1.8 | 858.563 ± 1.8 | 1186.2 ± 1.4 | 1171 ± 1.4 | 1156 ± 1.4 | 1141 ± 1.4 | 1126.3 ± 1.4
m1 = 2.446 | 924.879 ± 1.3 | 920.559 ± 1.3 | 916.245 ± 1.4 | 911.924 ± 1.4 | 907.596 ± 1.4 | 1233.3 ± 1.6 | 1218.8 ± 1.6 | 1204.4 ± 1.6 | 1190.1 ± 1.5 | 1175.9 ± 1.6
m1 = 3.896 | 976.589 ± 0.96 | 972.412 ± 0.99 | 968.238 ± 1 | 964.059 ± 1 | 959.889 ± 1.1 | 1287.4 ± 1.7 | 1273.5 ± 1.7 | 1259.7 ± 1.7 | 1246 ± 1.7 | 1232.5 ± 1.7

CCCCn1cc[n+](C)c1.[Br-] [1-butyl-3-methylimidazolium bromide] + O
Conditions | mass density, 298.15 K [kg/m3] | mass density, 303.15 K [kg/m3] | mass density, 308.15 K [kg/m3] | mass density, 313.15 K [kg/m3] | mass density, 318.15 K [kg/m3] | speed of sound, 298.15 K [m/s] | speed of sound, 303.15 K [m/s] | speed of sound, 308.15 K [m/s] | speed of sound, 313.15 K [m/s] | speed of sound, 318.15 K [m/s]
m1 = 0.0692 | 1000.44 ± 0.65 | 999.001 ± 0.65 | 997.35 ± 0.67 | 995.472 ± 0.68 | 993.421 ± 0.7 | 1504 ± 1.6 | 1515.9 ± 1.6 | 1526 ± 1.6 | 1534.6 ± 1.6 | 1541.9 ± 1.6
m1 = 0.1376 | 1003.7 ± 0.68 | 1002.2 ± 0.66 | 1000.49 ± 0.65 | 998.581 ± 0.66 | 996.491 ± 0.68 | 1511.3 ± 1.6 | 1522.7 ± 1.6 | 1532.3 ± 1.6 | 1540.4 ± 1.6 | 1546.9 ± 1.6
m1 = 0.2697 | 1009.85 ± 0.73 | 1008.28 ± 0.72 | 1006.54 ± 0.7 | 1004.6 ± 0.69 | 1002.47 ± 0.67 | 1523.1 ± 1.6 | 1533.3 ± 1.6 | 1541.9 ± 1.6 | 1549.1 ± 1.6 | 1555 ± 1.6
m1 = 0.6117 | 1024.93 ± 0.86 | 1023.15 ± 0.84 | 1021.17 ± 0.83 | 1019.01 ± 0.81 | 1016.68 ± 0.79 | 1552.2 ± 1.6 | 1561.7 ± 1.6 | 1568.7 ± 1.6 | 1573.8 ± 1.6 | 1577 ± 1.6
m1 = 1.28 | 1050.92 ± 1.1 | 1048.78 ± 1.1 | 1046.56 ± 1.1 | 1044.14 ± 1 | 1041.59 ± 1 | 1600.3 ± 1.7 | 1603.5 ± 1.7 | 1605.6 ± 1.7 | 1606.7 ± 1.7 | 1606.9 ± 1.7
m1 = 2.133 | 1078.26 ± 1.3 | 1075.78 ± 1.3 | 1073.14 ± 1.3 | 1070.42 ± 1.3 | 1067.58 ± 1.2 | 1645.9 ± 1.8 | 1644.9 ± 1.8 | 1644.1 ± 1.8 | 1640.6 ± 1.8 | 1637.5 ± 1.8
m1 = 3.115 | 1103.8 ± 1.6 | 1100.98 ± 1.5 | 1098.05 ± 1.5 | 1095.04 ± 1.5 | 1091.93 ± 1.5 | 1682.7 ± 1.9 | 1678.3 ± 1.9 | 1673.3 ± 1.9 | 1667.9 ± 1.9 | 1662 ± 1.9
m1 = 5.187 | 1143.52 ± 1.9 | 1140.26 ± 1.9 | 1136.94 ± 1.9 | 1133.57 ± 1.8 | 1130.13 ± 1.8 | 1724.2 ± 2 | 1716 ± 2 | 1707.4 ± 2 | 1698.6 ± 2 | 1689.6 ± 2.1
m1 = 7.792 | 1176.05 ± 2.2 | 1172.57 ± 2.2 | 1169.05 ± 2.1 | 1165.49 ± 2.1 | 1161.9 ± 2.1 | 1741.2 ± 2.2 | 1731.4 ± 2.2 | 1721.3 ± 2.2 | 1711 ± 2.2 | 1700.5 ± 2.2
